Laboratory results from patent publication US20080004302A1, “Novel Compounds” (ASTRAZENECA AB, priority 2006, published 2008).
Structures can show the parent of a compound that is named as a salt.

Legend:
human IGF1R = biological target: T1, human IGF1R (Homo sapiens, UniProt P08069); experiment: Inhibition of insulin-like growth factor-1 receptor phosphorylation in R+ cells; assay type: cell-based; conditions: 30 nM IGF1, read-out: IGF cell class
T1 construct: expressed in transfected cells; host or cells: R+ cells (R- mouse fibroblasts transfected with human IGF1R)
T1 sequence (P08069 31-1367): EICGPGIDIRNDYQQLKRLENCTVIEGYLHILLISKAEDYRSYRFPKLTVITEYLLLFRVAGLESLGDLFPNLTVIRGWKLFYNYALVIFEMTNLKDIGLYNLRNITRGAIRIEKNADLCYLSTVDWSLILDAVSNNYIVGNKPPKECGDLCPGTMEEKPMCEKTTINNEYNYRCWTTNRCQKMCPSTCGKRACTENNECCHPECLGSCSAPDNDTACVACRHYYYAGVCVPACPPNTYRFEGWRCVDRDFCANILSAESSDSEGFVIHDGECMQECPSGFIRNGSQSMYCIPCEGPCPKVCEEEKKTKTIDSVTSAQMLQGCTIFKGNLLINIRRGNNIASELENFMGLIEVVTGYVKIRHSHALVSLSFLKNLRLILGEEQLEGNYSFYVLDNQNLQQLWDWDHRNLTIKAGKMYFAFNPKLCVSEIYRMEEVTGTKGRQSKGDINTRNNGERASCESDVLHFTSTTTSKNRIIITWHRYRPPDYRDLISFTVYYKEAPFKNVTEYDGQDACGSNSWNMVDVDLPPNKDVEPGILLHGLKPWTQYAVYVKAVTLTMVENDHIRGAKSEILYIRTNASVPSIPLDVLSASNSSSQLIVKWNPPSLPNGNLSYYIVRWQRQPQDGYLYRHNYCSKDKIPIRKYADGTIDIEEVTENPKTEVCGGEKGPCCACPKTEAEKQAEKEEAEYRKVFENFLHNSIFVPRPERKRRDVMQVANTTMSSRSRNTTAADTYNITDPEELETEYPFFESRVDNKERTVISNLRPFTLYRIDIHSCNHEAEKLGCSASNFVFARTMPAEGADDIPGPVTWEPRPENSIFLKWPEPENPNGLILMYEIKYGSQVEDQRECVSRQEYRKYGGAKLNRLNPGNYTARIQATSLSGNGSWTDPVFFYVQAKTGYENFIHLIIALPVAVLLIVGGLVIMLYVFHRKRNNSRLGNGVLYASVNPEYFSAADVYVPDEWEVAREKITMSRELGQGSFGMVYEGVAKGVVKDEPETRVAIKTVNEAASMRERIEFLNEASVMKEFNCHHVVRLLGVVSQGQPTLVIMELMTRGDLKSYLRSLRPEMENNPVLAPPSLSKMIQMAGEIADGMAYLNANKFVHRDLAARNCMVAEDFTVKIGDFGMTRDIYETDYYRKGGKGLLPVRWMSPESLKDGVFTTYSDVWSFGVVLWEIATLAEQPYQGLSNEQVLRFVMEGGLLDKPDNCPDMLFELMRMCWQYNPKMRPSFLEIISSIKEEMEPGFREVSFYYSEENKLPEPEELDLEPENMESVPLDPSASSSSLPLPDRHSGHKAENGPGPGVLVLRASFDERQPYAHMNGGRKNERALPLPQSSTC
Experimental: This immunofluorescence end point cell assay measures the ability of a test compound to reduce the measured levels of IGF1R phosphorylation after IGF1 stimulation in R^+ cells. […] were derived by transfection of R^− mouse fibroblast cells with human IGF1R.
(+5% CO2) incubator for 30 minutes.
Following the compound treatment, the R^+ cells were stimulated with a final concentration of 30 nM IGF1 (Gropep 1M001) for 20 minutes at 37° C. […] Plates were incubated for 1 hour at room temperature. […] Additionally, in-house antibodies raised against phospho […] were also used at a suitable titre determined for each batch.
The plates were incubated at room temperature for one hour. […] After addition of 100 μl/well PBS the plates were sealed with a black seal.
The Green Fluorescent phospho IGF1R -associated signal in each well was measured using an Acumen Explorer HTS Reader (TTP Labtech Ltd., Cambridge). […] The instrument is a laser-scanning fluorescence microplate cytometer, which samples the well at regular intervals and uses threshold algorithms to identify all fluorescent intensities above the solution background without the need to generate and analyse an image. These fluorescent objects can be quantified and provide a measure of the phospho IGF1R levels in cells. Fluorescence dose response data obtained with each compound was exported into a suitable software package (such as Origin) to perform curve fitting analysis. Phospho-IGF1R levels in response to compound treatment versus stimulated and unstimulated controls were expressed as an IC50 value.

FGFR1 kinase = FGFR1 kinase (Homo sapiens, UniProt P11362); experiment: Kinase assay (using Caliper technology); assay type: biochemical; conditions: FGFR1 kinase, Caliper; upper bound of bin; read-out: IC50
FGFR1 kinase, sequence (P11362 22-822): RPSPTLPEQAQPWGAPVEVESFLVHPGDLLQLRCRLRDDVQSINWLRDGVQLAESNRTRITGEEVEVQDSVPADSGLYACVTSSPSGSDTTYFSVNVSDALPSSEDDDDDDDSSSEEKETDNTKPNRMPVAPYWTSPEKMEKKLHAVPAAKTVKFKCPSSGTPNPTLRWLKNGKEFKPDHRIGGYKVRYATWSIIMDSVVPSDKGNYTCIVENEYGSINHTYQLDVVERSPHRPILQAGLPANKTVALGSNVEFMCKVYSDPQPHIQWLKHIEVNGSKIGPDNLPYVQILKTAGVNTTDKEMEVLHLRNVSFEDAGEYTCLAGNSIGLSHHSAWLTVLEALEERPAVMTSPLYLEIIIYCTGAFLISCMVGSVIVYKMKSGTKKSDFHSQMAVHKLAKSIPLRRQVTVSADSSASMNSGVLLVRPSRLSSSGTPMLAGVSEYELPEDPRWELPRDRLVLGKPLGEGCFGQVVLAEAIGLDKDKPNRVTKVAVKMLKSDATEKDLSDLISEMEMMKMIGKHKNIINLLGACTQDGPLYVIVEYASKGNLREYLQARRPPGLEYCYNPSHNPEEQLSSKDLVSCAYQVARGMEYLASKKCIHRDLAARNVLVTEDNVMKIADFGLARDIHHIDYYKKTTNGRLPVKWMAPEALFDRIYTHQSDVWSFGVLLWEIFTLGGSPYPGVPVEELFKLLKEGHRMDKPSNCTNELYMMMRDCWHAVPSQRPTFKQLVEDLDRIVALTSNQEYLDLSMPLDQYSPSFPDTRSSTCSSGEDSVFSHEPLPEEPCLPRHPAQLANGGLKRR
Experimental: To determine inhibition of FGFR activity, kinase assays were conducted using Caliper technology.
Kinase activity assays were performed in Greiner 384-well low volume plates, with a total reaction volume of 12ul per well. […] The substrate for each assay was a custom peptide with fluorescent tag (13 amino acids in length) the sequence of which was specific for FGFR1 kinase.
Compounds were serially diluted in 5% (v/v) DMSO, before being added to assay plates.
Assay plates were incubated at room temperature for 1.5 h, before the reaction was stopped with the addition of buffer [comprising: 100 mM HEPES—pH7.5, 0.033% Brij-35, 0.22% Caliper Coating Reagent #3, 88mM EDTA, 5% DMSO]. Stopped assay plates were then read using the Caliper LabChip® LC3000 (which uses microfludics to measure a shift in mobility between fluorescent labelled peptide and the FGFR1 kinase—phosphorylated form of this peptide).

FGFR1 IIIc = biological target: T2, FGFR1 IIIc (Homo sapiens, UniProt P11362); experiment: Cell based inhibition of transiently expressed FGFR1 IIIc phosphorylation via use of ECHO technology (Cos-1 cells); conditions: Cos-1 cells, phospho-FGFR1, ECHO dosing; upper bound of bin; read-out: IC50
T2 construct: host or cells: Cos-1
T2 sequence (P11362 22-822): as above
Experimental: This assay is designed to detect inhibitors of transiently expressed FGFR1 phosphorylation by antibody staining of fixed cells detected using ArrayScan technology.
To undertake the assay, Cos-1 cells were harvested at 90-95% confluence for cell transfection. For each 96-well plate, 24μl Lipofectamine 2000 was added to 809 ul OptiMEM and incubated at room temperature for 5 minutes. […] Equal volumes of DNA and Lipofectamine 2000 were combined (DNA: Lipid=1:1.2 ratio) and incubated at room temperature for 20 minutes.
The harvested Cos-1 cells are counted using a coulter counter and diluted further with 1% FCS/DMEM to 2.5×10^5 cells/ml. For each 96-well, 8.33 ml cells were required. […] 70 μl of media was aspirated from the assay plate using the Quadra before the plate was transferred onto the ECHO 550. […] Compound transfer to the assay plate on the ECHO 550 was at concentration ranges 1)10 μM, 2) 3 μM, 3) 1 μM, 4) 0.3 μM, 5) 0.1 μM, 6) […].
The plates were gently tapped to mix compound in with the cell media and left to incubate at 37° C. with 5% CO2 for 1 hour.
Media was removed from the wells using vacuum aspiration; cells were fixed by adding 50 μl of 100% methanol to each well and incubated at room temperature for 20 minutes.
The plates were read on an Arrayscan (Cellomics).

Compound	IC50 (human IGF1R)	IC50 (FGFR1 kinase)	IC50 (FGFR1 IIIc)
COCCCc1cc(Nc2ccnc(NCc3cc(C4CC4)no3)n2)n[nH]1 [Example 18, N-[(3-cyclopropyl-1,2-oxazol-5-yl)methyl]-N′-[5-(3-methoxypropyl)-2H-pyrazol-3-yl]pyrimidine-2,4-diamine]	1 to 10 µM		
COCC(C)Oc1cc(Nc2ccnc(NCc3cc(C)no3)n2)n[nH]1 (centres unmarked) [Example 75, N′-[5-(1-methoxypropan-2-yloxy)-1H-pyrazol-3-yl]-N-[(3-methyl-1,2-oxazol-5-yl)methyl]pyrimidine-2,4-diamine]	> 10 µM	< 10 µM	
CCOc1ccc(COc2cc(Nc3ccnc(NCc4cc(C)no4)n3)n[nH]2)cc1OC [Example 99, N′-[5-[(4-ethoxy-3-methoxy-phenyl)methoxy]-1H-pyrazol-3-yl]-N-[(3-methyl1,2-oxazol-5-yl)methyl]pyrimidine-2,4-diamine]	> 10 µM	< 10 µM	
Cc1cc(CNc2nccc(Nc3cc(CCc4cccc(OC(C)C)c4)[nH]n3)n2)on1 [Example 122, N-[(3-methyl-1,2-oxazol-5-yl)methyl]-N′-[5-[2-(3-propan-2-yloxyphenyl)ethyl]-1H-pyrazol-3-yl]pyrimidine-2,4-diamine]		< 1 µM	< 1 µM
NC(=O)c1cc(CNc2nccc(Nc3cc(CCc4cccc(OCC5CC5)c4)[nH]n3)n2)on1 [Example 123, 5-[[[4-[[5-[2-[3-(cyclopropylmethoxy)phenyl]ethyl]-1H-pyrazol-3-yl]amino]pyrimidin-2-yl]amino]methyl]-1,2-oxazole-3-carboxamide]		< 1 µM	< 10 µM
COc1cncc(CCc2cc(Nc3ccnc(NCc4cc(CN(C)C)no4)n3)n[nH]2)c1 [Example 127, N-[[3-(dimethylaminomethyl)-1,2-oxazol-5-yl]methyl]-N′-[5-[2-(5-methoxypyridin-3-yl)ethyl]-1H-pyrazol-3-yl]pyrimidine-2,4-diamine]		< 1 µM	< 30 µM
COc1ccc(CCc2cc(Nc3ccnc(NCc4cc(C)no4)n3)n[nH]2)s1 [Example 129, N′-[5-[2-(5-methoxythiophen-2-yl)ethyl]-1H-pyrazol-3-yl]-N-[(3-methyl-1,2-oxazol-5-yl)methyl]pyrimidine-2,4-diamine]		< 10 µM	< 1 µM
COc1ncc(CCc2cc(Nc3ccnc(NCc4cc(C)no4)n3)n[nH]2)s1 [Example 130, N′-[5-[2-(2-methoxy-1,3-thiazol-5-yl)ethyl]-1H-pyrazol-3-yl]-N-[(3-methyl-1,2-oxazol-5-yl)methyl]pyrimidine-2,4-diamine]		< 1 µM	< 10 µM
Cc1cc(CNc2nccc(Nc3cc(CCc4cccc(=O)[nH]4)[nH]n3)n2)on1 [Example 134, 6-[2-[5-[[2-[(3-methyl-1,2-oxazol-5-yl)methylamino]pyrimidin-4-yl]amino]-2H-pyrazol-3-yl]ethyl]-1H-pyridin-2-one dihydrochloride]		< 10 µM	< 30 µM
COc1cc(CCc2cc(Nc3ccnc(NCc4cc(CN(C)C)no4)n3)n[nH]2)c(F)cn1 [Example 136, N-[[3-(dimethylaminomethyl)-1,2-oxazol-5-yl]methyl]-N′-[5-[2-(5-fluoro-2-methoxy-pyridin-4-yl)ethyl]-1H-pyrazol-3-yl]pyrimidine-2,4-diamine]		< 1 µM	< 10 µM
COc1ccnc(COc2cc(Nc3ccnc(NCc4cc(C)no4)n3)n[nH]2)c1 [Example 137, N′-[5-[(4-methoxypyridin-2-yl)methoxy]-1H-pyrazol-3-yl]-N-[(3-methyl-1,2-oxazol-5-yl)methyl]pyrimidine-2,4-diamine]		< 1 µM	< 30 µM
COc1cncc(CCc2cc(Nc3ccnc(NCc4cc(C)no4)n3)n[nH]2)c1 [Example 138, N′-[5-[2-(5-methoxypyridin-3-yl)ethyl]-1H-pyrazol-3-yl]-N-[(3-methyl-1,2-oxazol-5-yl)methyl]pyrimidine-2,4-diamine]		< 1 µM	< 10 µM
COc1cc(CCc2cc(Nc3ccnc(NCc4cc(C)no4)n3)n[nH]2)cc(NC(C)=O)c1 [Example 139, N-[3-methoxy-5-[2-[5-[[2-[(3-methyl-1,2-oxazol-5-yl)methylamino]pyrimidin-4-yl]amino]-2H-pyrazol-3-yl]ethyl]phenyl]acetamide]			< 30 µM
CC(C)Oc1cccc(CCc2cc(Nc3ccnc(NCc4cc(C(N)=O)no4)n3)n[nH]2)c1 [Example 140, 5-[[[4-[[5-[2-(3-propan-2-yloxyphenyl)ethyl]-1H-pyrazol-3-yl]amino]pyrimidin-2-yl]amino]methyl]-1,2-oxazole-3-carboxamide]			< 10 µM

Other lines, results leading:

IC50 (human IGF1R)	IC50 (FGFR1 kinase)	IC50 (FGFR1 IIIc)	Compound
	< 0.2 µM	< 0.2 µM	COc1cc(CCc2cc(Nc3ccnc(NCc4cc(C)no4)n3)n[nH]2)cc(OC)n1 [Example 124, N′-[5-[2-(2,6-dimethoxypyridin-4-yl)ethyl]-1H-pyrazol-3-yl]-N-[(3-methyl-1,2-oxazol-5-yl)methyl]pyrimidine-2,4-diamine]
	< 0.2 µM	< 1 µM	Cc1cc(CNc2nccc(Nc3cc(CCc4cccc(N)c4)[nH]n3)n2)on1 [Example 125, N′-[5-[2-(3-aminophenyl)ethyl]-1H-pyrazol-3-yl]-N-[(3-methyl-1,2-oxazol-5-yl)methyl]pyrimidine-2,4-diamine]
	< 0.2 µM	< 0.2 µM	COc1cc(Cl)cc(CCc2cc(Nc3ccnc(NCc4cc(C(N)=O)no4)n3)[nH]n2)c1 [Example 126, 5-[[[4-[[5-[2-(3-chloro-5-methoxy-phenyl)ethyl]-2H-pyrazol-3-yl]amino]pyrimidin-2-yl]amino]methyl]-1,2-oxazole-3-carboxamide]
	< 0.2 µM	< 0.2 µM	COc1cc(C)cc(COc2cc(Nc3ccnc(NCc4cc(C)no4)n3)n[nH]2)c1 [Example 131, N′-[5-[(3-methoxy-5-methyl-phenyl)methoxy]-1H-pyrazol-3-yl]-N-[(3-methyl-1,2-oxazol-5-yl)methyl]pyrimidine-2,4-diamine]
	< 0.2 µM	< 1 µM	CNC(=O)c1cc(CCc2cc(Nc3ccnc(NCc4cc(C)no4)n3)n[nH]2)cc(OC)c1 [Example 132, 3-Methoxy-N-methyl-5-[2-[5-[[2-[(3-methyl-1,2-oxazol-5-yl)methylamino]pyrimidin-4-yl]amino]-1H-pyrazol-3-yl]ethyl]benzamide]
	< 0.2 µM	< 10 µM	Cc1cc(CNc2nccc(Nc3cc(CCc4cccc(Oc5ncccn5)c4)[nH]n3)n2)on1 [Example 133, N-[(3-methyl-1,2-oxazol-5-yl)methyl]-N′-[5-[2-(3-pyrimidin-2-yloxyphenyl)ethyl]-1H-pyrazol-3-yl]pyrimidine-2,4-diamine hydrochloride]
	< 0.2 µM	< 1 µM	COc1cc(COc2cc(Nc3ccnc(NCc4cc(C)no4)n3)n[nH]2)c(F)cn1 [Example 135, N′-[5-[(5-fluoro-2-methoxy-pyridin-4-yl)methoxy]-1H-pyrazol-3-yl]-N-[(3-methyl-1,2-oxazol-5-yl)methyl]pyrimidine-2,4-diamine]
	< 0.2 µM	< 1 µM	CNC(=O)c1cccc(CCc2cc(Nc3ccnc(NCc4cc(C)no4)n3)n[nH]2)c1 [Example 141, N-methyl-3-[2-[5-[[2-[(3-methyl-1,2-oxazol-5-yl)methylamino]pyrimidin-4-yl]amino]-1H-pyrazol-3-yl]ethyl]benzamide]
